Results as given in patent publication US20050222055A1 (priority 2002, published 2005).

Columns and labels:
23S rRNA = assay: Bond constant by competitive luminescence anisotropy (CRP probe displacement), 23S rRNA; conditions: read-out: binding force (KD) against 23S RNA; luminescence anisotropy competition with CRP, 20° C., HEPES pH 7.5; read-out: binding force (KD) against 32S RNA
Method: (§1) A sense DNA of 16S rRNA (sequence listing 1) and an antisense DNA of 16S rRNA (sequence listing 2); a sense DNA of RRE RNA (sequence listing 3) and an antisense DNA of RRE RNA (sequence listing 4); and a sense DNA of 23S RNA (sequence listing 5) and an antisense DNA of 23S RNA (sequence listing 6) was prepared according to the present invention.
(§2) Paricularly, the two DNAs comprising sense and antisense (2.5 nanomole, respectively), 5× buffer solution (200 mM Tris-HCl, 30 mM MgCl2, 10 mM spermidine, 50 mM NaCl, pH 7.9; 20 μl), 100 mM DL-dithiotheitol (DTT; 20 μl), four nucleotide tri phosphate mixture (2.5 mM, 20 μl), T7 RNA polymerase (50 units/mL; 1 μl) and diluted water (34 μl) were mixed and cultured at 37° C. for 2 hours. And then 1 unit/ml of Rnase-free RQ1 Dnase was added to the mixture and cultured at 37° C. for 10 minutes. 100 μl of a PCI mixture solution (phenol:chloroform:[…]=25:24:1) was added to the obtained mixture, mixed at room temperature for 5 minutes and then centrifuged at 1400 rpm for 10 minutes. […]
(§3) The paromomycin bonded with tetramethylrhodamine (hereinafter referred to as “[…]”) is used as a luminescence fluorescent probe. The luminescence anisotropy is measured by establishing a thermostat of 20° C. at the Perkin-Elmer LS-50B luminescence spectroscope. The luminescence absorptance of CRP is 510 nm and its luminescence fluorescent is observed at 550 nm. […]

RRE RNA = assay: Bond constant by competitive luminescence anisotropy (CRP probe displacement), RRE RNA; conditions: luminescence anisotropy competition with CRP, 20° C., HEPES pH 7.5; read-out: binding force (KD) against RRE RNA
Method: as §1, §2, §3

16S rRNA = assay: Bond constant by competitive luminescence anisotropy (CRP probe displacement), 16S rRNA; conditions: luminescence anisotropy competition with CRP, 20° C., HEPES pH 7.5; read-out: binding force (KD) against 16s rRNA
Method: as §1, §2, §3

## Neomycin
23S rRNA
  Kd: > 2000 nM
RRE RNA
  Kd: 180 nM
16S rRNA
  Kd: > 2000 nM
